The subject of assay [1] is Monoclonal antibody (mAb) 2D4. As to the kind of experiment: Ratio of reaction constant of paraoxon hydrolysis catalysed by monoclonal antibody 2D4 to that Michaelis-Menten's constant.
Assay [2] deals with Monoclonal antibody (mAb) 3C8. Description: Ratio of reaction constant of paraoxon hydrolysis catalysed by monoclonal antibody 3C8 to that Michaelis-Menten's constant.
Assay [3] deals with Monoclonal antibody (mAb) 2D4. Description: Michaelis-Menten's constant of monoclonal antibody, 2D4 for paraoxon hydrolysis determined in 50 mM bicine with 50 mM NaCl, pH 8.0, 5% DMSO cosolvent at 23 degree C.
The subject of assay [4] is Monoclonal antibody (mAb) 3C8. As to the kind of experiment: Michaelis-Menten constant of monoclonal antibody, 3C8 for paraoxon hydrolysis determined in 50 mM bicine with 50 mM NaCl, pH 8.0, 5% DMSO cosolvent at 23 degree C.
Assay [5] concerns Monoclonal antibody (mAb) 2D4. As to the kind of experiment: Reaction constant of paraoxon hydrolysis catalyse by monoclonal antibody, 2D4 determined in 50 mM bicine with 50 mM NaCl, pH 8.0, 5% DMSO cosolvent at 23 degree C.
For assay [6], the system named is Monoclonal antibody (mAb) 2D4. As to the kind of experiment: Ratio of reaction constant of paraoxon hydrolysis catalysed by monoclonal antibody 2D4 to that of uncatalysed.
Assay [7] relates to Monoclonal antibody (mAb) 3C8. As to the kind of experiment: Ratio of reaction constant of paraoxon hydrolysis catalysed by monoclonal antibody 3C8 to that of uncatalysed.
Assay [8] has as its system Monoclonal antibody (mAb) 3C8. Description: Reaction constant of paraoxon hydrolysis catalyse by monoclonal antibody, 3C8 determined in 50 mM bicine with 50 mM NaCl, pH 8.0, 5% DMSO cosolvent at 23 degree C.

SMILES strings stand for the structures.

Regarding `CCOc1c(Nc2ccc(NC(=O)CCCC(=O)O)cc2)c(=O)c1=O`, the k cat/Km in assay [1] is 0.0322 M⁻¹ s⁻¹; in assay [2], 0.0262 M⁻¹ s⁻¹. Besides, the Km is 1180 µM in assay [3] and 1290 µM in assay [4]. The values for the k cat in assay [5] and in assay [8] were 3.8e-05 s⁻¹ and 3.38e-05 s⁻¹, respectively. Moreover, the k cat/Kuncat in assay [6] is 2310; in assay [7], 2060.
